Values of other authors in patent US20240196931A1, “BOTANICAL SUPPLEMENT AND METHOD FOR PREVENTING DISEASES, PROMOTING GROWTH AND SURVIVAL OF AN ANIMAL BY USING THE SAME” (ACADEMIA SINICA, priority 2022, published 2024).

Assays:
sepsis = sepsis induced by endotoxin or cecal ligation puncture
[1] = test system: melanoma and breast cancer cell metastasis; conditions: in vitro and in xenograft or allograft mouse tumor models

## CC/C=C\C/C=C\C/C=C\CCCCCCCC(=O)OC[C@H](CO[C@@H]1O[C@H](CO)[C@H](O)[C@H](O)[C@H]1O)OC(=O)CCCCCCC/C=C\C/C=C\C/C=C\CC [dLGG, 1,2-di-O-α-linolenoyl-3-O-β-galactopyranosyl-sn-glycerol]
sepsis
  Effect against sepsis in mouse: preventive and therapeutic effect
[1]
  Effect on melanoma and breast cancer cell metastasis: suppressive effects
